Measurements from publication PMC8861050, “Design, synthesis and evaluation of novel 2-oxoindoline-based acetohydrazides as antitumor agents” (Scientific Reports, 2022).

Key:
[1] = Cytotoxicity on normal mesenchymal stem cells; assay type: cell-based; details: human bone marrow-derived mesenchymal stem cells; mean ± SEM; read-out: Cytotoxicity (IC50) MSCs
Protocol: Overally, 5-fluorinated compounds (4i–p and 5d–f) were slightly more cytotoxic than non-fluorinated ones (4a–h, 5a–c). For compounds in series 4a–p, it was observed that, electron-releasing substituents (–OCH3, OH) were generally better than electron-withdrawing groups (–Cl) for cytotoxicity. Especially, compounds with 2-OH substituents produced the best cytotoxicity. The addition of either 4-OCH3 or 3-allyl groups further enhanced cytotoxicity of the related compounds (4g, 4h and 4o, 4p).

NCI-H23 (lung cancer) = assay: SRB cytotoxicity assay, NCI-H23; assay type: cell-based; details: Homo sapiens, 48 h incubation, mean ± SEM of 3 independent experiments
Text: (§1) Three human cancer cell lines: colon cancer (SW620), prostate cancer (PC3), and lung cancer (NCI-H23) were used for sceening the cytotoxicity of the compounds. The cancer cells were purchased from American Type Culture Collection (Manassas, VA, USA). Other reagents/media for cell culture were obtained from GIBCO (Grand Island, New York, USA). The testing cancer cells were culture in Dulbecco’s Modified Eagle Medium until confluence. Then, they were trypsinized and suspended at the level of 3 × 10^4 cells/mL of cell culture medium. On day 0, cancer cells were seeded at a volume of 180 µL/well of 96-well plates and incubated for 24 h at 37 °C in a 5% CO2 incubator. On day 1, 20 µL of various concentrations of testing compounds were added to each well of the 96-well plates. Chemicals were dissolved in dimethyl sulfoxide (DMSO, stock) and diluted in culture medium (1% DMSO) before adding to the culture. After 48 h incubation, the sulforhodamine B assay was used for cell density determination with slight modifications[22]–[26]. The Probits were used for the calculation of IC50 values. The reported IC50 were the averages of three independent screening (SD ≤ 10%)[27].
(§2) Two series of compounds synthesized (4a–p and 5a–f) were evaluated for their cytotoxicity against three human cancer cell lines, including SW620 (colon cancer), PC3 (prostate cancer), NCI-H23 (lung cancer), using SRB method as described previously[22] with slight modifications[23]–[26].

PC3 (prostate cancer) = assay: SRB cytotoxicity assay, PC3; assay type: cell-based; details: Homo sapiens, 48 h incubation, mean ± SEM of 3 independent experiments
Text: as §1, §2

SW620 (colon cancer) = assay: SRB cytotoxicity assay, SW620; assay type: cell-based; details: Homo sapiens, SW-620, 48 h incubation, mean ± SEM of 3 independent experiments
Text: as §1, §2

Structure (SMILES) | melting point [°C] | IC50 [1] [µM] | IC50 (NCI-H23 (lung cancer)) [µM] | IC50 (PC3 (prostate cancer)) [µM] | IC50 (SW620 (colon cancer)) [µM]
O=C(CN1C(=O)Cc2ccccc21)N/N=C/c1ccccc1 [Compound 4a, (E)-N'-Benzylidene-2-(2-oxoindolin-1-yl)acetohydrazide] | 167 to 168 | > 30 | 10.4 ± 0.87 | 12.2 ± 0.99 | 10.1 ± 0.91
O=C(CN1C(=O)Cc2ccccc21)N/N=C/c1ccccc1Cl [Compound 4b, (E)-N'-(2-Chlorobenzylidene)-2-(2-oxoindolin-1-yl)acetohydrazide] | 179 to 181 | > 30 | 8.34 ± 0.52 | 8.72 ± 0.71 | 9.91 ± 0.76
O=C(CN1C(=O)Cc2ccccc21)N/N=C/c1cccc(Cl)c1 [Compound 4c, (E)-N'-(3-Chlorobenzylidene)-2-(2-oxoindolin-1-yl)acetohydrazide] | 181 to 182 | > 30 | 13.5 ± 1.11 | 14.2 ± 1 | 15.3 ± 1.01
O=C(CN1C(=O)Cc2ccccc21)N/N=C/c1ccc(Cl)cc1 [Compound 4d, (E)-N'-(4-Chlorobenzylidene)-2-(2-oxoindolin-1-yl)acetohydrazide] | 185 to 187 | > 30 | 15.6 ± 1.43 | 17.4 ± 1.34 | 16.3 ± 1.21
COc1ccc(/C=N/NC(=O)CN2C(=O)Cc3ccccc32)cc1 [Compound 4e, (E)-N'-(4-Methoxybenzylidene)-2-(2-oxoindolin-1-yl)acetohydrazide] | 168 to 169 | > 30 | 8.72 ± 0.33 | 7.43 ± 0.45 | 9.01 ± 0.74
COc1ccc(/C=N/NC(=O)CN2C(=O)Cc3ccccc32)c(O)c1 [Compound 4g, (E)-N'-(2-Hydroxy-4-methoxybenzylidene)-2-(2-oxoindolin-1-yl)acetohydrazide] | 177 to 178 | 15.5 ± 0.64 | 2.59 ± 0.21 | 4.32 ± 0.34 | 3.34 ± 0.31
O=C(CN1C(=O)Cc2cc(F)ccc21)N/N=C/c1ccccc1 [Compound 4i, (E)-N'-Benzylidene-2-(5-fluoro-2-oxoindolin-1-yl)acetohydrazide] | 173 to 174 | > 30 | 8.44 ± 0.67 | 8.56 ± 0.52 | 9.54 ± 0.74
O=C(CN1C(=O)Cc2cc(F)ccc21)N/N=C/c1ccccc1Cl [Compound 4j, (E)-N'-(2-Chlorobenzylidene)-2-(5-fluoro-2-oxoindolin-1-yl)acetohydrazide] | 185 to 186 | > 30 | 8 ± 0.98 | 8.43 ± 0.59 | 7.56 ± 0.57
O=C(CN1C(=O)Cc2cc(F)ccc21)N/N=C/c1cccc(Cl)c1 [Compound 4k, (E)-N'-(3-Chlorobenzylidene)-2-(5-fluoro-2-oxoindolin-1-yl)acetohydrazide] | 187 to 188 | > 30 | 17.4 ± 1.54 | 16.4 ± 1.56 | 16.4 ± 1.19
O=C(CN1C(=O)Cc2cc(F)ccc21)N/N=C/c1ccc(Cl)cc1 [Compound 4l, (E)-N'-(4-Chlorobenzylidene)-2-(5-fluoro-2-oxoindolin-1-yl)acetohydrazide] | 191 to 192 | > 30 | 16.4 ± 1.77 | 17.8 ± 1.58 | 14.3 ± 1.21
COc1ccc(/C=N/NC(=O)CN2C(=O)Cc3cc(F)ccc32)cc1 [Compound 4m, (E)-N'-(4-Methoxybenzylidene)-2-(5-fluoro-2-oxoindolin-1-yl)acetohydrazide] | 175 to 176 | > 30 | 7.43 ± 0.56 | 7.33 ± 0.42 | 7.52 ± 0.63

More lines, main results first:

melting point [°C] | Structure (SMILES) | IC50 [1] [µM] | IC50 (NCI-H23 (lung cancer)) [µM] | IC50 (PC3 (prostate cancer)) [µM] | IC50 (SW620 (colon cancer)) [µM]
191 to 192 | O=C(CN1C(=O)Cc2ccccc21)N/N=C1\C(=O)Nc2ccccc21 [Compound 5a, (Z)-2-(2-Oxoindolin-1-yl)-N'-(2-oxoindolin-3-ylidene)acetohydrazide] | > 30 | 15.3 ± 1.32 | 14.3 ± 1.21 | 16.4 ± 1.05
201 to 202 | O=C(CN1C(=O)Cc2ccccc21)N/N=C1\C(=O)Nc2ccc(Cl)cc21 [Compound 5b, (Z)-N'-(5-Chloro-2-oxoindolin-3-ylidene)-2-(2-oxoindolin-1-yl)acetohydrazide] | > 30 | 16.5 ± 1.33 | 18.4 ± 1.53 | 17.4 ± 1.43
198 to 199 | Cc1ccc2c(c1)/C(=N/NC(=O)CN1C(=O)Cc3ccccc31)C(=O)N2 [Compound 5c, (Z)-N'-(5-Methyl-2-oxoindolin-3-ylidene)-2-(2-oxoindolin-1-yl)acetohydrazide] | > 30 | 18.4 ± 1.87 | 19.6 ± 2.01 | 17.6 ± 1.32
215 to 216 | O=C(CN1C(=O)Cc2cc(F)ccc21)N/N=C1\C(=O)Nc2ccccc21 [Compound 5d, (Z)-2-(5-Fluoro-2-oxoindolin-1-yl)-N'-(2-oxoindolin-3-ylidene)acetohydrazide] | > 30 | 13.6 ± 1.31 | 14.6 ± 1.27 | 12.4 ± 1.21
221 to 222 | O=C(CN1C(=O)Cc2cc(F)ccc21)N/N=C1\C(=O)Nc2ccc(Cl)cc21 [Compound 5e, (Z)-N'-(5-Chloro-2-oxoindolin-3-ylidene)-2-(5-fluoro-2-oxoindolin-1-yl)acetohydrazide] | > 30 | 15.5 ± 1.36 | 14.7 ± 1.71 | 15.3 ± 1.5
217 to 218 | Cc1ccc2c(c1)/C(=N/NC(=O)CN1C(=O)Cc3cc(F)ccc31)C(=O)N2 [Compound 5f, (Z)-2-(5-Fluoro-2-oxoindolin-1-yl)-N'-(5-methyl-2-oxoindolin-3-ylidene)acetohydrazide] | > 30 | 14.9 ± 1.83 | 15.3 ± 1.7 | 12.7 ± 1.22
